# Measurements: patent US20250154455A1, “BIOACTIVE AND ANTIOXIDANT SUPRAMOLECULAR POLYMER HYDROGELS FOR NEURAL CELL CULTURE” (Northwestern University, priority 2023, published 2025)
# Assay: Hydrogen peroxide remaining in solutions of PA or PEDOT-S/OH
# Settings: hydrogen peroxide solution, after 3 days
# Protocol: The presence of ROS was determined using CellROX Green Reagent (ThermoFisher). Briefly, CellROX was added to cells for a final concentration of 5 μM and incubated for 30 mins at 37° C. Wells were washed 3× with PBS and fluorescence intensity was read at 485/520 nm using Cyation3. For solution studies, CellROX was added to solutions of PEDOT or PA containing 10 μM H2O2 at various time points.
substance,measurement,value
C16-A2G2E4GIKVAV [PA],peroxide still present,~75%
